Source: US12448400B2, “KRAS G12D modulating compounds” (priority 2023, dated 2025)

These compounds were tested on GP2D (KRAS G12D) cells (assay: 2D cell viability assay (CellTiter-Glo)). Settings: 96 h; GP2D cells, 4 days, CellTiter-Glo luminescence; read-out: G12D 2D EC50.
Format: cell-based
Description: Example B. 2D Cell Viability Assay
Compounds were tested in a 384-well format for their ability to inhibit the viability of GP2D (KRAS G12D) cells in 2D assays. Compounds were serially diluted (1:3) in DMSO. The LabCyte ECHO Acoustic dispenser system was used to pre-spot assay plates with 200 nL of test molecule per well. 1000 cells/well (40 μL volume per well) in RPMI medium with 10% FBS, and Penicillin-Streptomycin-Glutamine were plated in pre-spotted 384-well plates (Greiner, Catalog #781076) on the BioTEK EL406 liquid dispenser with a 5 μL dispensing cassette (BioTek 7170011). The plates were incubated at 37° C., 5% CO2 for 4 days before addition of CellTiter-Glo (CTG) reagent and measurement of luminescence signal. EC50 values were defined as the compound concentration that causes a 50% decrease in luminescence signal and were calculated using a sigmoidal dose-response model to generate curve fits.
C#Cc1c(F)ccc2cc(N)cc(-c3nc4c5c(nc(OC[C@]6(C)CN(C)CC[C@@H]6C(F)F)nc5c3F)N3C[C@H]5CC[C@@H]([C@H]3CCC4)N5Cc3oc(=O)oc3C)c12 [Example 76, 4-(((6aR,7S,10R)-2-(3-amino-8-ethynyl-7-fluoronaphthalen-1-yl)-13-(((3S,4S)-4-(difluoromethyl)-1,3-dimethylpiperidin-3-yl)methoxy)-1-fluoro-5,6,6a,7,8,9,10,11-octahydro-4H-3,11a,12,14,15-pentaaza-7,10-methanocyclohepta[4,5]cycloocta[1,2,3-de]naphthalen-15-yl)methyl)-5-methyl-1,3-dioxol-2-one] showed an EC50 of 890 pM.
C[C@H]1Cc2c(Cl)c(-c3ccc(F)c4sc(N)c(C#N)c34)c(F)c3nc(OC[C@@]45CCCN4C[C@H](F)C5)nc(c23)N2C[C@H]3CC[C@H](N3)[C@H]12 (atropisomer, axis not shown; (aS)) [Example 71-P, 2-amino-4-((1S,4R,11R,14S,14aS)-12-chloro-10-fluoro-8-(((2R,7aS)-2-fluorotetrahydro-1H-pyrrolizin-7a(5H)-yl)methoxy)-14-methyl-1,2,3,4,5,13,14,14a-octahydro-1,4-epiminoazepino[1′,2′:1,7]azepino[2,3,4-de]quinazolin-11-yl)-7-fluorobenzo[b]thiophene-3-carbonitrile] gave an EC50 of 180 pM.
[2H]C([2H])([2H])N1CC[C@H](C(F)F)[C@](C)(C([2H])([2H])Oc2nc3c4c(nc(-c5cc(O)cc6ccc(F)c(C#C)c56)c(F)c4n2)CCC[C@@H]2[C@@H]4CC[C@H](CN32)N4Cc2oc(=O)oc2C)C1 [Example 75, 4-(((6aR,7S,10R)-13-(((3S,4S)-4-(difluoromethyl)-3-methyl-1-(methyl-d3)piperidin-3-yl)methoxy-d2)-2-(8-ethynyl-7-fluoro-3-hydroxynaphthalen-1-yl)-1-fluoro-5,6,6a,7,8,9,10,11-octahydro-4H-3,11a,12,14,15-pentaaza-7,10-methanocyclohepta[4,5]cycloocta[1,2,3-de]naphthalen-15-yl)methyl)-5-methyl-1,3-dioxol-2-one] gave an EC50 of 80 pM.
Work on C#Cc1c(F)ccc2cc(O)cc(-c3nc4c5c(nc(OC[C@]6(C)CN(C)CC[C@@H]6C(F)F)nc5c3F)N3C[C@H]5CC[C@@H]([C@H]3CCC4)N5Cc3oc(=O)oc3C)c12 [Example 74, 4-(((6aR,7S,10R)-13-(((3S,4S)-4-(difluoromethyl)-1,3-dimethylpiperidin-3-yl)methoxy)-2-(8-ethynyl-7-fluoro-3-hydroxynaphthalen-1-yl)-1-fluoro-5,6,6a,7,8,9,10,11-octahydro-4H-3,11a,12,14,15-pentaaza-7,10-methanocyclohepta[4,5]cycloocta[1,2,3-de]naphthalen-15-yl)methyl)-5-methyl-1,3-dioxol-2-one] yielded an EC50 of 60 pM.
C#Cc1c(F)ccc2cc(O)cc(-c3nc4c5c(nc(OC[C@@]67CCCN6C[C@H](F)C7)nc5c3F)N3C[C@H]5CC[C@@H]([C@H]3CCC4)N5Cc3oc(=O)oc3CC)c12 [Example 40, 4-ethyl-5-(((6aR,7S,10R)-2-(8-ethynyl-7-fluoro-3-hydroxynaphthalen-1-yl)-1-fluoro-13-(((2R,7aS)-2-fluorotetrahydro-1H-pyrrolizin-7a(5H)-yl)methoxy)-5,6,6a,7,8,9,10,11-octahydro-4H-3,11a,12,14,15-pentaaza-7,10-methanocyclohepta[4,5]cycloocta[1,2,3-de]naphthalen-15-yl)methyl)-1,3-dioxol-2-one] showed an EC50 of 220 pM.
Work on CCCCCc1oc(=O)oc1CN1[C@@H]2CC[C@H]1[C@H]1CCCc3nc(-c4cc(O)cc5ccc(F)c(OC(F)(F)F)c45)c(F)c4nc(OC[C@@]56CCCN5C[C@H](F)C6)nc(c34)N1C2 [Example 23, 4-(((6aR,7S,10R)-1-fluoro-2-(7-fluoro-3-hydroxy-8-(trifluoromethoxy)naphthalen-1-yl)-13-(((2R,7aS)-2-fluorotetrahydro-1H-pyrrolizin-7a(5H)-yl)methoxy)-5,6,6a,7,8,9,10,11-octahydro-4H-3,11a,12,14,15-pentaaza-7,10-methanocyclohepta[4,5]cycloocta[1,2,3-de]naphthalen-15-yl)methyl)-5-pentyl-1,3-dioxol-2-one] yielded an EC50 of 920 pM.
For CCCCc1oc(=O)oc1CN1[C@@H]2CC[C@H]1[C@H]1CCCc3nc(-c4cc(O)cc5ccc(F)c(OC(F)(F)F)c45)c(F)c4nc(OC[C@@]56CCCN5C[C@H](F)C6)nc(c34)N1C2 [Example 22, 4-butyl-5-(((6aR,7S,10R)-1-fluoro-2-(7-fluoro-3-hydroxy-8-(trifluoromethoxy)naphthalen-1-yl)-13-(((2R,7aS)-2-fluorotetrahydro-1H-pyrrolizin-7a(5H)-yl)methoxy)-5,6,6a,7,8,9,10,11-octahydro-4H-3,11a,12,14,15-pentaaza-7,10-methanocyclohepta[4,5]cycloocta[1,2,3-de]naphthalen-15-yl)methyl)-1,3-dioxol-2-one], the EC50 was 850 pM.
For C#Cc1c(F)ccc2cccc(-c3nc4c5c(nc(OC[C@@]67CCCN6C[C@H](F)C7)nc5c3F)N3C[C@H]5CC[C@@H]([C@H]3CCC4)N5Cc3oc(=O)oc3CCCCCC)c12 [Example 21, 4-(((6aR,7S,10R)-2-(8-ethynyl-7-fluoronaphthalen-1-yl)-1-fluoro-13-(((2R,7aS)-2-fluorotetrahydro-1H-pyrrolizin-7a(5H)-yl)methoxy)-5,6,6a,7,8,9,10,11-octahydro-4H-3,11a,12,14,15-pentaaza-7,10-methanocyclohepta[4,5]cycloocta[1,2,3-de]naphthalen-15-yl)methyl)-5-hexyl-1,3-dioxol-2-one], the EC50 was 5200 pM.
With Cc1oc(=O)oc1CN1[C@@H]2CC[C@H]1[C@@H]1[C@@H](C)Cc3c(Cl)c(-c4ccc(F)c5sc(N)c(C#N)c45)c(F)c4nc(OC[C@@]56CCCN5C[C@H](F)C6)nc(c34)N1C2 (atropisomer, axis not shown; (aS)) [Example 71, 2-amino-4-((1S,4R,11R,14S,14aS)-12-chloro-10-fluoro-8-(((2R,7aS)-2-fluorotetrahydro-1H-pyrrolizin-7a(5H)-yl)methoxy)-14-methyl-15-((5-methyl-2-oxo-1,3-dioxol-4-yl)methyl)-1,2,3,4,5,13,14,14a-octahydro-1,4-epiminoazepino[1′,2′:1,7]azepino[2,3,4-de]quinazolin-11-yl)-7-fluorobenzo[b]thiophene-3-carbonitrile] the EC50 was 410 pM.
Compound C#Cc1c(F)ccc2cc(N)cc(-c3nc4c5c(nc(OC[C@@]67CCCN6C[C@H](F)C7)nc5c3F)N3C[C@H]5CC[C@@H]([C@H]3CCC4)N5Cc3oc(=O)oc3-c3ccccc3)c12 [Example 69, 4-(((6aR,7S,10R)-2-(3-amino-8-ethynyl-7-fluoronaphthalen-1-yl)-1-fluoro-13-(((2R,7aS)-2-fluorotetrahydro-1H-pyrrolizin-7a(5H)-yl)methoxy)-5,6,6a,7,8,9,10,11-octahydro-4H-3,11a,12,14,15-pentaaza-7,10-methanocyclohepta[4,5]cycloocta[1,2,3-de]naphthalen-15-yl)methyl)-5-phenyl-1,3-dioxol-2-one] has an EC50 of 480 pM.
With CCCCCCc1oc(=O)oc1CN1[C@@H]2CC[C@H]1[C@H]1CCCc3nc(-c4cc(O)cc5ccc(F)c(OC(F)(F)F)c45)c(F)c4nc(OC[C@@]56CCCN5C[C@H](F)C6)nc(c34)N1C2 [Example 24, 4-(((6aR,7S,10R)-1-fluoro-2-(7-fluoro-3-hydroxy-8-(trifluoromethoxy)naphthalen-1-yl)-13-(((2R,7aS)-2-fluorotetrahydro-1H-pyrrolizin-7a(5H)-yl)methoxy)-5,6,6a,7,8,9,10,11-octahydro-4H-3,11a,12,14,15-pentaaza-7,10-methanocyclohepta[4,5]cycloocta[1,2,3-de]naphthalen-15-yl)methyl)-5-hexyl-1,3-dioxol-2-one] the EC50 was 1100 pM.
Compound C#Cc1c(F)ccc2cc(O)cc(-c3nc4c5c(nc(OC[C@@]67CCCN6C[C@H](F)C7)nc5c3F)N3C[C@H]5CC[C@@H]([C@H]3CCC4)N5Cc3oc(=O)oc3-c3ccccc3)c12 [Example 72, 4-(((6aR,7S,10R)-2-(8-ethynyl-7-fluoro-3-hydroxynaphthalen-1-yl)-1-fluoro-13-(((2R,7aS)-2-fluorotetrahydro-1H-pyrrolizin-7a(5H)-yl)methoxy)-5,6,6a,7,8,9,10,11-octahydro-4H-3,11a,12,14,15-pentaaza-7,10-methanocyclohepta[4,5]cycloocta[1,2,3-de]naphthalen-15-yl)methyl)-5-phenyl-1,3-dioxol-2-one] has an EC50 of 110 pM.

Same assay, conditions: GP2D cells, 4 days, CellTiter-Glo luminescence; read-out: G12D 2D EC50
C#Cc1c(F)ccc2cc(O)cc(-c3nc4c5c(nc(OCC67CCCN6C(COC(C(F)(F)F)(C(F)(F)F)C(F)(F)F)CC7)nc5c3F)N3CC5CCC(C3CC4)N5Cc3oc(=O)oc3C)c12 [Example 68, 4-(((8aR,9S,12R)-5-(8-ethynyl-7-fluoro-3-hydroxynaphthalen-1-yl)-4-fluoro-2-(((3S,7aS)-3-(((1,1,1,3,3,3-hexafluoro-2-(trifluoromethyl)propan-2-yl)oxy)methyl)tetrahydro-1H-pyrrolizin-7a(5H)-yl)methoxy)-7,8,8a,9,10,11,12,13-octahydro-1,3,6,13a,14-pentaaza-9,12-methanonaphtho[1,8-ab]heptalen-14-yl)methyl)-5-methyl-1,3-dioxol-2-one] was tested, and the EC50 was 650 pM.
